Laboratory results published in the supplement of paper PMC10307832.

Key:
Assay in all cases: relative viability (nuclei count vs DMSO), 5 days (fraction); higher = more cells survive
NCI-H650 = system: NCI-H650
Method in brief: (§1)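 Relative viability was taken as the ratio of nuclei in treated wells to nuclei in vehicle wells. Lung cancer cell lines in 1536-well plates received compounds by pin tool one day after seeding, either one drug alone or a fixed anchor-drug dose plus five library-drug doses (not always all listed) in √10 steps. Nuclei were counted on 4× images after 5 days of treatment, and values are medians of duplicate plates.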

NCI-H441 = system: NCI-H441
Method in brief: as §1

NCI-H2085 = system: NCI-H2085
Method in brief: as §1

NCI-H2170 = system: NCI-H2170
Method in brief: as §1

NCI-H2228 = system: NCI-H2228
Method in brief: as §1

LOU-NH91 = system: LOU-NH91
Method in brief: as §1

NCI-H727 = system: NCI-H727
Method in brief: as §1

NCI-H1651 = system: NCI-H1651
Method in brief: as §1

NCI-H1650 = system: NCI-H1650
Method in brief: as §1

SW 900 = system: SW 900
Method in brief: as §1

NCI-H2023 = system: NCI-H2023
Method in brief: as §1

HARA = system: HARA
Method in brief: as §1

NCI-H2087 = system: NCI-H2087
Method in brief: as §1

EPLC-272H = system: EPLC-272H
Method in brief: as §1

SW 1573 = system: SW 1573
Method in brief: as §1

NCI-H1975 = system: NCI-H1975
Method in brief: as §1

H3255 = system: H3255
Method in brief: as §1

NCI-H23 = system: NCI-H23
Method in brief: as §1

PC-3 [JPC-3] = system: PC-3 [JPC-3]
Method in brief: as §1

NCI-H838 = system: NCI-H838
Method in brief: as §1

UMC-11 = system: UMC-11
Method in brief: as §1

LC-2-ad = system: LC-2-ad
Method in brief: as §1

NCI-H2009 = system: NCI-H2009
Method in brief: as §1

Structure (SMILES): Cc1csc(=NC2CCCCC2)n1/N=C/c1ccc(O)c(O)c1O [MIM1] + CC(=O)Nc1cccc(-n2c(=O)n(C3CC3)c(=O)c3c(Nc4ccc(I)cc4F)n(C)c(=O)c(C)c32)c1 [Trametinib] (partner 0.02 µM)
- relative viability (NCI-H650; first compound 0.2 µM): 1.02
- relative viability (NCI-H650; first compound 0.6325 µM): 0.946
- relative viability (NCI-H650; first compound 2 µM): 1.07
- relative viability (NCI-H650; first compound 6.325 µM): 0.939
- relative viability (NCI-H650; first compound 20 µM): 0.647
- relative viability (NCI-H441; first compound 0.2 µM): 0.558
- relative viability (NCI-H441; first compound 0.6325 µM): 0.409
- relative viability (NCI-H441; first compound 2 µM): 0.484
- relative viability (NCI-H441; first compound 6.325 µM): 0.302
- relative viability (NCI-H441; first compound 20 µM): 0.211
- relative viability (NCI-H2085; first compound 0.2 µM): 0.619
- relative viability (NCI-H2085; first compound 0.6325 µM): 0.512
- relative viability (NCI-H2085; first compound 2 µM): 0.62
- relative viability (NCI-H2085; first compound 6.325 µM): 0.436
- relative viability (NCI-H2085; first compound 20 µM): 0.406
- relative viability (NCI-H2170; first compound 0.2 µM): 0.859
- relative viability (NCI-H2170; first compound 0.6325 µM): 1.01
- relative viability (NCI-H2170; first compound 2 µM): 0.914
- relative viability (NCI-H2170; first compound 6.325 µM): 0.609
- relative viability (NCI-H2170; first compound 20 µM): 0.368
- relative viability (NCI-H2228; first compound 0.2 µM): 0.54
- relative viability (NCI-H2228; first compound 0.6325 µM): 0.642
- relative viability (NCI-H2228; first compound 2 µM): 0.506
- relative viability (NCI-H2228; first compound 6.325 µM): 0.307
- relative viability (NCI-H2228; first compound 20 µM): 0.13
- relative viability (LOU-NH91; first compound 0.2 µM): 0.795
- relative viability (LOU-NH91; first compound 0.6325 µM): 0.839
- relative viability (LOU-NH91; first compound 2 µM): 0.646
- relative viability (LOU-NH91; first compound 6.325 µM): 0.7
- relative viability (LOU-NH91; first compound 20 µM): 0.349
- relative viability (NCI-H727; first compound 0.2 µM): 0.371
- relative viability (NCI-H727; first compound 0.6325 µM): 0.407
- relative viability (NCI-H727; first compound 2 µM): 0.393
- relative viability (NCI-H727; first compound 6.325 µM): 0.427
- relative viability (NCI-H727; first compound 20 µM): 0.383
- relative viability (NCI-H1651; first compound 0.2 µM): 0.856
- relative viability (NCI-H1651; first compound 0.6325 µM): 0.9
- relative viability (NCI-H1651; first compound 2 µM): 0.866
- relative viability (NCI-H1651; first compound 6.325 µM): 0.728
- relative viability (NCI-H1651; first compound 20 µM): 0.843
- relative viability (NCI-H1650; first compound 0.2 µM): 0.697
- relative viability (NCI-H1650; first compound 0.6325 µM): 0.619
- relative viability (NCI-H1650; first compound 2 µM): 0.424
- relative viability (NCI-H1650; first compound 6.325 µM): 0.182
- relative viability (NCI-H1650; first compound 20 µM): 0.138
- relative viability (SW 900; first compound 0.2 µM): 0.831
- relative viability (SW 900; first compound 0.6325 µM): 0.886
- relative viability (SW 900; first compound 2 µM): 0.718
- relative viability (SW 900; first compound 6.325 µM): 0.196
- relative viability (SW 900; first compound 20 µM): 0.21
- relative viability (NCI-H2023; first compound 0.2 µM): 0.505
- relative viability (NCI-H2023; first compound 0.6325 µM): 0.562
- relative viability (NCI-H2023; first compound 2 µM): 0.52
- relative viability (NCI-H2023; first compound 6.325 µM): 0.247
- relative viability (NCI-H2023; first compound 20 µM): 0.0881
- relative viability (HARA; first compound 0.2 µM): 0.707
- relative viability (HARA; first compound 0.6325 µM): 0.608
- relative viability (HARA; first compound 2 µM): 0.641
- relative viability (HARA; first compound 6.325 µM): 0.216
- relative viability (HARA; first compound 20 µM): 0.173
- relative viability (NCI-H2087; first compound 0.2 µM): 0.293
- relative viability (NCI-H2087; first compound 0.6325 µM): 0.227
- relative viability (NCI-H2087; first compound 2 µM): 0.197
- relative viability (NCI-H2087; first compound 6.325 µM): 0.175
- relative viability (NCI-H2087; first compound 20 µM): 0.202
- relative viability (EPLC-272H; first compound 0.2 µM): 0.322
- relative viability (EPLC-272H; first compound 0.6325 µM): 0.279
- relative viability (EPLC-272H; first compound 2 µM): 0.273
- relative viability (EPLC-272H; first compound 6.325 µM): 0.24
- relative viability (EPLC-272H; first compound 20 µM): 0.16
- relative viability (SW 1573; first compound 0.2 µM): 0.647
- relative viability (SW 1573; first compound 0.6325 µM): 0.574
- relative viability (SW 1573; first compound 2 µM): 0.553
- relative viability (SW 1573; first compound 6.325 µM): 0.361
- relative viability (SW 1573; first compound 20 µM): 0.13
- relative viability (NCI-H1975; first compound 0.2 µM): 0.366
- relative viability (NCI-H1975; first compound 0.6325 µM): 0.372
- relative viability (NCI-H1975; first compound 2 µM): 0.376
- relative viability (NCI-H1975; first compound 6.325 µM): 0.208
- relative viability (NCI-H1975; first compound 20 µM): 0.123
- relative viability (H3255; first compound 0.2 µM): 0.578
- relative viability (H3255; first compound 0.6325 µM): 0.618
- relative viability (H3255; first compound 2 µM): 0.56
- relative viability (H3255; first compound 6.325 µM): 0.529
- relative viability (H3255; first compound 20 µM): 0.293
- relative viability (NCI-H23; first compound 0.2 µM): 0.407
- relative viability (NCI-H23; first compound 0.6325 µM): 0.342
- relative viability (NCI-H23; first compound 2 µM): 0.326
- relative viability (NCI-H23; first compound 6.325 µM): 0.312
- relative viability (NCI-H23; first compound 20 µM): 0.163
- relative viability (PC-3 [JPC-3]; first compound 0.2 µM): 0.643
- relative viability (PC-3 [JPC-3]; first compound 0.6325 µM): 0.687
- relative viability (PC-3 [JPC-3]; first compound 2 µM): 0.655
- relative viability (PC-3 [JPC-3]; first compound 6.325 µM): 0.521
- relative viability (PC-3 [JPC-3]; first compound 20 µM): 0.558
- relative viability (NCI-H838; first compound 0.2 µM): 0.463
- relative viability (NCI-H838; first compound 0.6325 µM): 0.572
- relative viability (NCI-H838; first compound 2 µM): 0.544
- relative viability (NCI-H838; first compound 6.325 µM): 0.353
- relative viability (NCI-H838; first compound 20 µM): 0.178
- relative viability (UMC-11; first compound 0.2 µM): 0.724
- relative viability (UMC-11; first compound 0.6325 µM): 0.267
- relative viability (UMC-11; first compound 2 µM): 0.751
- relative viability (UMC-11; first compound 6.325 µM): 0.475
- relative viability (UMC-11; first compound 20 µM): 0.156
- relative viability (LC-2-ad; first compound 0.2 µM): 0.904
- relative viability (LC-2-ad; first compound 0.6325 µM): 0.941
- relative viability (LC-2-ad; first compound 2 µM): 0.913
- relative viability (LC-2-ad; first compound 6.325 µM): 0.529
- relative viability (LC-2-ad; first compound 20 µM): 0.739
- relative viability (NCI-H2009; first compound 0.2 µM): 0.257
- relative viability (NCI-H2009; first compound 0.6325 µM): 0.261
- relative viability (NCI-H2009; first compound 2 µM): 0.27
- relative viability (NCI-H2009; first compound 6.325 µM): 0.208
- relative viability (NCI-H2009; first compound 20 µM): 0.329
